Test results as given in patent US20100048950A1 (BOEHRINGER INGELHEIM INTERNATIONAL GMBH, priority 2007, published 2010).

target: T1, human glucocorticoid receptor (GR) complex (Homo sapiens, UniProt P04150); assay: Glucocorticoid receptor competitive binding assay (fluorescence polarization); conditions: competition with TAMRA-labeled dexamethasone, read-out: potent activity (IC50) in the GR binding assay
T1 construct: made in house; host or cells: insect expression system (baculovirus lysate)
T1 sequence (P04150 1-777): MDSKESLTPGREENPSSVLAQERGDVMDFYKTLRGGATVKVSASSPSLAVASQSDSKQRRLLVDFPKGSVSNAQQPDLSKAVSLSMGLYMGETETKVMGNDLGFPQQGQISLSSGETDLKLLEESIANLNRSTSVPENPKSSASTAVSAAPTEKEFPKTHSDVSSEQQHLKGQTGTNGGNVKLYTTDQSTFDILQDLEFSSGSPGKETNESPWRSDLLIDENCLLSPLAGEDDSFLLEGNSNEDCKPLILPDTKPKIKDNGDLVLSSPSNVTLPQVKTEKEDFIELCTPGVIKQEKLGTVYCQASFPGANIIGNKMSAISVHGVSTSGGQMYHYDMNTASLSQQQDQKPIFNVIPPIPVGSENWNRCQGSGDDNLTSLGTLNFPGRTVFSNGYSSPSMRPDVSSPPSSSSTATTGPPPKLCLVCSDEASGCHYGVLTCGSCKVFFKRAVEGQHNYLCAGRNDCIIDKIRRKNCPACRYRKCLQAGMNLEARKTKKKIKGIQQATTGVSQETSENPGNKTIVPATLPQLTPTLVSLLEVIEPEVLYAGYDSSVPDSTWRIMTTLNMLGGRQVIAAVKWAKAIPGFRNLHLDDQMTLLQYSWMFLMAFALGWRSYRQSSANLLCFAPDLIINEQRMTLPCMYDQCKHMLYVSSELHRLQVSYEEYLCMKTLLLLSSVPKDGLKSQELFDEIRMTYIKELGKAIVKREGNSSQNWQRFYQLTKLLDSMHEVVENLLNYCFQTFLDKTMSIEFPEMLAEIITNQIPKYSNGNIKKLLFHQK
How it was run: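 Human GR complex in baculovirus insect-cell lysate (1:170) competed against 15 nM TAMRA-dexamethasone stock for 1 h at room temperature. Buffer: TES/KCl/molybdate/EDTA/CHAPS/glycerol/DTT, pH 7.4, 1% DMSO final. FP read at 550/580 nm; IC50 from 4-parameter logistic fit.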

SMILES	IC50 [nM]
Cc1cc(C)c(S(=O)(=O)NC(COc2ccc(Cl)cc2F)C(F)(F)F)c(C)c1 (centres unmarked) [N-[1-(4-Chloro-2-fluorophenoxymethyl)-2,2,2-trifluoroethyl]-2,4,6-trimethylbenzenesulfonamide]	≤ 100
Cc1cc(C)c(S(=O)(=O)NC(COc2ccc(Cl)c(C(F)(F)F)c2)C(F)(F)F)c(C)c1 (centres unmarked) [N-[1-(4-Chloro-3-trifluoromethylphenoxymethyl)-2,2,2-trifluoroethyl]-2,4,6-trimethylbenzenesulfonamide]	≤ 100
Cc1cc(C)c(S(=O)(=O)NC(COc2cc(C)c(C#N)c(C)c2)C(F)(F)F)c(C)c1 (centres unmarked) [N-[1-(4-Cyano-3,5-dimethylphenoxymethyl)-2,2,2-trifluoroethyl]-2,4,6-trimethylbenzenesulfonamide]	≤ 100
Cc1cc(C)c(S(=O)(=O)NC(COc2cc(Cl)ccc2C)C(F)(F)F)c(C)c1 (centres unmarked) [N-[1-(5-Chloro-2-methylphenoxymethyl)-2,2,2-trifluoroethyl]-2,4,6-trimethylbenzenesulfonamide]	≤ 100
COc1ccc(NCC(NS(=O)(=O)c2c(C)cc(C)cc2C)C(F)(F)F)c(OC)c1 (centres unmarked) [N-{1-[(2,4-Dimethoxyphenylamino)methyl]-2,2,2-trifluoroethyl}-2,4,6-trimethylbenzenesulfonamide]	≤ 100
Cc1ccc(NCC(NS(=O)(=O)c2c(C)cc(C)cc2C)C(F)(F)F)c(C)c1 (centres unmarked) [N-{1-[(2,4-Dimethylphenylamino)methyl]-2,2,2-trifluoroethyl}-2,4,6-trimethylbenzenesulfonamide]	≤ 100
Cc1cc(C)c(S(=O)(=O)NC(CNc2ccc(C#N)cc2Cl)C(F)(F)F)c(C)c1 (centres unmarked) [N-{1-[(2-Chloro-4-cyanophenylamino)methyl]-2,2,2-trifluoroethyl}-2,4,6-trimethylbenzenesulfonamide]	≤ 100
Cc1cc(C)c(S(=O)(=O)NC(CNc2cc(C(F)(F)F)ccc2Cl)C(F)(F)F)c(C)c1 (centres unmarked) [N-{1-[(2-Chloro-5-trifluoromethylphenylamino)methyl]-2,2,2-trifluoroethyl}-2,4,6-trimethylbenzenesulfonamide]	≤ 100
Cc1cc(C)c(S(=O)(=O)NC(CNc2cccc(C)c2C#N)C(F)(F)F)c(C)c1 (centres unmarked) [N-{1-[(2-Cyano-3-methylphenylamino)methyl]-2,2,2-trifluoroethyl}-2,4,6-trimethylbenzenesulfonamide]	≤ 100
CCc1cccc(C)c1NCC(NS(=O)(=O)c1c(C)cc(C)cc1C)C(F)(F)F (centres unmarked) [N-{1-[(2-Ethyl-6-methylphenylamino)methyl]-2,2,2-trifluoroethyl}-2,4,6-trimethylbenzenesulfonamide]	≤ 100
Cc1cc(C)cc(NCC(NS(=O)(=O)c2c(C)cc(C)cc2C)C(C)C)c1 (centres unmarked) [N-{1-[(3,5-Dimethylphenylamino)methyl]-2-methylpropyl}-2,4,6-trimethylbenzenesulfonamide]	≤ 100
Cc1cc(C)cc(NCC(NS(=O)(=O)c2c(C)cc(C)cc2C)C(F)(F)F)c1 (centres unmarked) [N-{1-[(3,5-Dimethylphenylamnino)methyl]-2,2,2-trifluoroethyl}-2,4,6-trimethyl-benzenesulfonamide]	≤ 100
Cc1cc(C)c(S(=O)(=O)NC(CNc2cccc(Cl)c2C#N)C(F)(F)F)c(C)c1 (centres unmarked) [N-{1-[(3-Chloro-2-cyanophenylamino)methyl]-2,2,2-trifluoroethyl}-2,4,6-trimethylbenzenesulfonamide]	≤ 100
Cc1cc(C)c(S(=O)(=O)NC(CNc2ccc(C#N)c(Cl)c2)C(F)(F)F)c(C)c1 (centres unmarked) [N-{1-[(3-Chloro-4-cyanophenylamino)methyl]-2,2,2-trifluoroethyl}-2,4,6-trimethylbenzenesulfonamide]	≤ 100
Cc1cc(C)c(S(=O)(=O)NC(CNc2ccc(Cl)cc2C#N)C(F)(F)F)c(C)c1 (centres unmarked) [N-{1-[(4-Chloro-2-cyanophenylamino)methyl]-2,2,2-trifluoroethyl}-2,4,6-trimethylbenzenesulfonamide]	≤ 100

The remaining lines, values ahead:

IC50 [nM]	SMILES
≤ 100	Cc1cc(C)c(S(=O)(=O)NC(CSc2ccc(Br)cc2)C(F)(F)F)c(C)c1 (centres unmarked) [N-[1-(4-Bromophenylsulfanylmethyl)-2,2,2-trifluoroethyl]-2,4,6-trimethylbenzenesulfonamide]
≤ 100	Cc1cc(C)c(S(=O)(=O)NC(CSc2ccc(Cl)cc2)C(F)(F)F)c(C)c1 (centres unmarked) [N-[1-(4-Chlorophenylsulfanylmethyl)-2,2,2-trifluoroethyl]-2,4,6-trimethylbenzenesulfonamide]
≤ 100	Cc1cc(C)c(S(=O)(=O)NC(COc2ccc(C#N)cc2)C(F)(F)F)c(C)c1 (centres unmarked) [N-[1-(4-Cyanophenoxymethyl)-2,2,2-trifluoroethyl]-2,4,6-trimethylbenzenesulfonamide]
≤ 100	Cc1cc(C)c(S(=O)(=O)NC(CNc2ccc(F)cc2F)C(F)(F)F)c(C)c1 (centres unmarked) [N-{1-[(2,4-Difluorophenylamino)methyl]-2,2,2-trifluoroethyl}-2,4,6-trimethylbenzenesulfonamide]
≤ 100	Cc1cc(C)c(S(=O)(=O)NC(CNc2cc(Cl)ccc2Cl)C(F)(F)F)c(C)c1 (centres unmarked) [N-{1-[(2,5-Dichlorophenylamino)methyl]-2,2,2-trifluoroethyl}-2,4,6-trimethylbenzenesulfonamide]
≤ 100	Cc1cc(C)c(S(=O)(=O)NC(CNc2c(Cl)cccc2Cl)C(F)(F)F)c(C)c1 (centres unmarked) [N-{1-[(2,6-Dichlorophenylamino)methyl]-2,2,2-trifluoroethyl}-2,4,6-trimethylbenzenesulfonamide]
≤ 100	Cc1cc(C)c(S(=O)(=O)NC(CNc2c(F)cccc2F)C(F)(F)F)c(C)c1 (centres unmarked) [N-{1-[(2,6-Difluorophenylamino)methyl]-2,2,2-trifluoroethyl}-2,4,6-trimethylbenzenesulfonamide]
≤ 100	Cc1cc(C)c(S(=O)(=O)NC(CNc2ccccc2Cl)C(F)(F)F)c(C)c1 (centres unmarked) [N-{1-[(2-Chlorophenylamino)methyl]-2,2,2-trifluoroethyl}-2,4,6-trimethylbenzenesulfonamide]
≤ 100	Cc1cc(C)c(S(=O)(=O)NC(CNc2ccccc2C#N)C(F)(F)F)c(C)c1 (centres unmarked) [N-{1-[(2-Cyanophenylamino)methyl]-2,2,2-trifluoroethyl}-2,4,6-trimethylbenzenesulfonamide]
≤ 100	Cc1cc(C)c(S(=O)(=O)NC(CNc2cccc(Br)c2)C(F)(F)F)c(C)c1 (centres unmarked) [N-{1-[(3-Bromophenylamino)methyl]-2,2,2-trifluoroethyl}-2,4,6-trimethylbenzenesulfonamide]
≤ 100	Cc1cc(C)c(S(=O)(=O)NC(CNc2cccc(Cl)c2)C(F)(F)F)c(C)c1 (centres unmarked) [N-{1-[(3-Chlorophenylamino)methyl]-2,2,2-trifluoroethyl}-2,4,6-trimethylbenzenesulfonamide]
≤ 100	Cc1cc(C)c(S(=O)(=O)NC(CNc2cccc(C#N)c2)C(F)(F)F)c(C)c1 (centres unmarked) [N-{1-[(3-Cyanophenylamino)methyl]-2,2,2-trifluoroethyl}-2,4,6-trimethylbenzenesulfonamide]
≤ 100	Cc1cc(C)c(S(=O)(=O)NC(CNc2ccc(C#N)cc2)C(F)(F)F)c(C)c1 (centres unmarked) [N-{1-[(4-Cyanophenylamino)methyl]-2,2,2-trifluoroethyl}-2,4,6-trimethylbenzenesulfonamide]
≤ 100	Cc1cc(C)c(S(=O)(=O)NC(CNc2cc(Cl)ccc2C)C(F)(F)F)c(C)c1 (centres unmarked) [N-{1-[(5-Chloro-2-methylphenylamino)methyl]-2,2,2-trifluoroethyl}-2,4,6-trimethylbenzenesulfonamide]
